Test results reported in US6900202B2, “Di-substituted imineheterocyclic compounds” (priority 2000, dated 2005).

Experiments:
[1] = biological target: T1, α1β1γδ subtype of nicotinic acetylcholine receptors (Rattus norvegicus, UniProt P25108); assay: biochemical; assay type: binding; conditions: % of control binding remaining; for control % of [3H]-α-Bgt binding at 100 μM of test compound: 100 μM test compound; for control % of [3H]-α-Bgt binding at 1,000 μM of test compound: 1,000 μM test compound
T1 construct: The centrifugation at 100,000×G for 60 minutes at 4° C. yielded the rat muscle extract as supernatant
Excerpt: (§1) The methods for evaluating the binding capabilities of the compounds against nicotinic acetylcholine receptors are different by subtypes of receptors. The binding capabilities of the compounds at α4β2 nicotinic acetylcholine receptors are examined using rat brain membrane obtained from whole homogenized brain, and determining the inhibiting rate of the compounds against [^3H]-cytisine binding to said brain membrane. Furthermore, the binding capabilities of the compounds at α1β1γδ nicotinic acetylcholine receptors are examined using homogenized rat muscle, and determining the inhibiting rate of the compounds against [^3H]-α-bungarotoxin binding to said muscle membrane.
Binding Assays at α1β1γδ Subtype of Nicotinic Acetylcholine Receptors
The affinity of the compounds of the present invention to α1β1γδ subtype of nicotinic acetylcholine receptors was measured by the following method, which was modified method described by Garcha H. S., Thomas P., Spivak C.
(1) Preparation of Rat Skeletal Muscles Containing α1β1γδ Subtype of Nicotinic Acetylcholine Receptors
The substantially same animals described in the Biological Experiment 1 were used.
The isolation of α1β1γδ subtype of nicotinic acetylcholine receptors was performed as follow. That is, rat posterior skeletal muscles were isolated just after sacrificed by decapitation, washed with ice-cooled saline solution and then frozen at −80° C. with liquid nitrogen and stored till using. After thawing the frozen muscles, tissue was homogenized (40% w/v) with buffer solution [2.5 mM of sodium phosphate buffer (pH:7.2), 90 mM of NaCl, 2 mM of KCl, 1 mM of EDTA, 2 mM of benzamidine, 0.1 mM of benzethonium chloride, 0.1 mM of PMSF, 0.01% of sodium azide] in Waring blender [Waring blender 34BL97; WARING PRODUCTS DIVISION DYNAMICS CORPORATION OF AMERICA) for 60 seconds. The homogenate were centrifuged under 20,000×G for 60 minutes at 4° C. The supernatant was separated and the resulting pellet was added to the same buffer (1.5 ml/g wet weight), and homogenized under the same conditions. Triton X100 (2% w/v) was added and the mixture was stirred for 3 hours at 4° C. The centrifugation at 100,000×G for 60 minutes at 4° C. yielded the rat muscle extract as supernatant. This was stored at 4° C. for up to 4 weeks, and used for binding assays at receptors.
(2) Experiments of α1β1γδ Subtype of Nicotinic Acetylcholine Receptors Binding
Receptors binding experiments were performed as follow. That is, the extract of rat muscle containing 600-900 μg of protein was added to test tubes containing test compounds and incubated for 15 minutes at 37° C. Then, to this mixture was added 1 nM of [^3H]-α-bungarotoxin (α-Bgt) and further incubated for 2 hours. The samples were isolated by vacuum filtration onto Whatman GF/B filters, which were prerinsed with 0.5% polyethylenimine just prior to sample filtration, using Brandel multi manifold cell harvester. The filters were rapidly rinsed with washing solution (10 mM of KH2PO4, 150 mM of NaCl, pH 7.2, room temperature) (5×1 ml). The filters were counted in 3 ml of clearsol I (Nacalai Tesque Inc.). The determination of nonspecific binding was incubated in the presence of 1 μM α-Bgt. […] In the receptor binding experiments, said buffer solution was added for adjusting the final concentration of BSA to be 0.05%.
The analyses of the experimental results were conducted by as described in the Biological Experiment 1.

[2] = biological target: T2, α4β2 subtype of nicotinic acetylcholine receptors (Rattus norvegicus, UniProt P09483+P12390); assay: Binding assay at α4β2 subtype of nicotinic acetylcholine receptors ([3H]-cytisine, rat brain membrane); conditions: for control % of [3H]-cytisine binding at 1 μM of test compound: 1 μM test compound; for control % of [3H]-cytisine binding at 1 μM of test compound / control % of [3H]-cytisine binding at 10 μM of test compound: % of control binding remaining; for control % of [3H]-cytisine binding at 10 μM of test compound: 10 μM test compound
T2 construct: examined using rat brain membrane obtained from whole homogenized brain; from tissue; host or cells: whole brain membranes of Fischer-344 male rats
Excerpt: as §1
Binding Assays at α4β2 Subtype of Nicotinic Acetylcholine Receptors
The affinity of the compounds of the present invention to α4β2 subunit of nicotinic acetylcholine receptors was performed by the following method, which was modified method described by Pabreza L. A., Dhawan S. & Kellar K. J., Mol. Pharm., 39, 9-12 (1990), and by Anderson D. J. & Arneric S. P., Eur. J. Pharm., 253, 261-267 (1994).
(1) Preparation of Rat Brain Membrane Containing α4β2 subtype of Nicotinic Acetylcholine Receptors
Fischer-344 strain male rats (body weight: 200-240 g; 9 weeks old) obtained from Charles River Japan were used. Rats were housed in the breeding cage controlled of the room temperature at 23±1° C., and the humidity of 55±5% for 1 to 4 weeks. Rats (3 to 4 rats per a cage) were housed with lights on for 12 hours daily (from 7:00 to 19:00), and allowed free access to food and water.
Preparation of rat brain membrane containing α4β2 subtype of nicotinic acetylcholine receptors was performed as follow. That is, rat brains were isolated just after sacrificed by decapitation, washed with ice-cooled saline solution and then frozen at −80° C. with liquid nitrogen and stored till using. After thawing the frozen brain, the brain was homogenized in 10 volumes of buffer solution (50 mM of Tris-HCl, 120 mM of NaCl, 5 mM of KCl, 1 mM of MgCl2, 2mM of CaCl2; pH 7.4; 4° C.) using homogenizer (HG30, Hitachi Kohki Ltd.) for 30 seconds, and the homogenate were centrifuged under 1,000×G for 10 minutes at 4° C. The resulting supernatant was separated and the pellet was homogenized again with half volume of aforementioned prior buffer solution and centrifuged under the same conditions. Combined supernatant was further centrifuged under 40,000×G for 20 minutes at 4° C. The pellet was suspended in buffer solution and used for binding assays at receptors.
(2) Experiments of α4β2 Subtype of Nicotinic Acetylcholine Receptors Binding
Suspensions of membrane pellets containing 400-600 μg of protein were added to test tubes containing test compounds and [^3H]-cytisine (2 nM) in a final volume of 200 μl and incubated for 75 minutes in ice-cooled bath. The samples were isolated by vacuum filtration onto Whatman GF/B filters, which were prerinsed with 0.5% polyethylenimine just prior to sample filtration, using Brandel multi manifold cell harvester. The filters were rapidly washed with buffer solution (3×1 ml). The filters were counted in 3 ml of clearsol I (Nacalai Tesque Inc.).
The analyses of the experimental results were conducted by using the Accufit Competition Program (Beckman Ltd.).

T1 sequence (P25108 21-457): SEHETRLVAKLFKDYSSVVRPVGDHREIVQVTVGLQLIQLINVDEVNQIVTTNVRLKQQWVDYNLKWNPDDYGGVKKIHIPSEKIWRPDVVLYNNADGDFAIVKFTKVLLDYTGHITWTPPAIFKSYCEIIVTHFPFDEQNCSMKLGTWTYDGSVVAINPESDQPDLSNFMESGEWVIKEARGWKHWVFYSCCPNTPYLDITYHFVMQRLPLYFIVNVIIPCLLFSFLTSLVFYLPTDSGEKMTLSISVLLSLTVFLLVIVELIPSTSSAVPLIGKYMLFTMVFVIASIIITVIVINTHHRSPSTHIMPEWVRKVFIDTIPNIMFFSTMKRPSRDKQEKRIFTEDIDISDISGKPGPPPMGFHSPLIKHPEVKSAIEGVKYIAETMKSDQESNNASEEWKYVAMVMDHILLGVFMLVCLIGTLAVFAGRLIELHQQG
T1 sequence (P25109 24-501, further chain): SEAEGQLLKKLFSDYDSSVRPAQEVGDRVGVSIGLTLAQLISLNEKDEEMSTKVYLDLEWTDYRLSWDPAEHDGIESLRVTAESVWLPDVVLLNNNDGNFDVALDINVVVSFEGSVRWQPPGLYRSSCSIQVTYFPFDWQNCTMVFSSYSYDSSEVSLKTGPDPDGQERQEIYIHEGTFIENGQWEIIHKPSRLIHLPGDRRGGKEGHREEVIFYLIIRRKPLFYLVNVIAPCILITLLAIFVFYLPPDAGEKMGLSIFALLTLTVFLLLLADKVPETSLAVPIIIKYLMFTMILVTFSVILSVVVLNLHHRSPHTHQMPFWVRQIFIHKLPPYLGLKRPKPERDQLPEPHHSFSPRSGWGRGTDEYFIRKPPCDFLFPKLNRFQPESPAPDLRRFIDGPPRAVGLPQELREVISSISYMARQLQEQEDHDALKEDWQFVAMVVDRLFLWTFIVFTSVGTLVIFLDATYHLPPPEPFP
T1 sequence (P25110 22-517, further chain): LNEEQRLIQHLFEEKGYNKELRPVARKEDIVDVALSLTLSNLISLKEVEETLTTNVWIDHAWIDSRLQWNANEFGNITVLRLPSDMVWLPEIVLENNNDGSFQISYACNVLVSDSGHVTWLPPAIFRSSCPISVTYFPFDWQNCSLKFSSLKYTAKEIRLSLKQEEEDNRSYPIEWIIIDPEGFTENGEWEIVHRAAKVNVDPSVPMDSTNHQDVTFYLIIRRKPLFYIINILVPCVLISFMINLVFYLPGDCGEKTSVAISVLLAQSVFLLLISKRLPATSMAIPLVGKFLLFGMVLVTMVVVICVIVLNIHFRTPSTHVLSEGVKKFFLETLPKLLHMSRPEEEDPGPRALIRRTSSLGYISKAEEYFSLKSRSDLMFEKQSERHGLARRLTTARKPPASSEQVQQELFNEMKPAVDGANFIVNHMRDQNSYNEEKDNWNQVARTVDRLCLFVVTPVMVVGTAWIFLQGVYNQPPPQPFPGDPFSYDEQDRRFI
T2 sequence (P09483 31-630): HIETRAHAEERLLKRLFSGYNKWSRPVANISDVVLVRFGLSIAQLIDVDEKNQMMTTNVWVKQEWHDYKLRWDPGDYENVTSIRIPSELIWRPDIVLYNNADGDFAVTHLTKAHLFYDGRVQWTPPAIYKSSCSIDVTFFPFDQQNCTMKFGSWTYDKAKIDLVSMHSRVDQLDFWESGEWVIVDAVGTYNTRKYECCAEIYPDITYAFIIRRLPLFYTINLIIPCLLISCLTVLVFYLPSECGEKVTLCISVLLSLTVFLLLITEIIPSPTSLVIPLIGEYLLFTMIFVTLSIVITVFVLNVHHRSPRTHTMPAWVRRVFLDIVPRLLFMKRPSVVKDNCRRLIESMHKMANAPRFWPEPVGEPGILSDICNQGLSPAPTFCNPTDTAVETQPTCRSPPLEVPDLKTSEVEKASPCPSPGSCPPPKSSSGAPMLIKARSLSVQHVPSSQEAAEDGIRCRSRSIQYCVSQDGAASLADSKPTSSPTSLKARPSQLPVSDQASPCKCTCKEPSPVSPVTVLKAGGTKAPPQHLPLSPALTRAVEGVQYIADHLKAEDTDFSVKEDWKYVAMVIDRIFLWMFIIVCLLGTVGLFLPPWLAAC
T2 sequence (P12390 25-500): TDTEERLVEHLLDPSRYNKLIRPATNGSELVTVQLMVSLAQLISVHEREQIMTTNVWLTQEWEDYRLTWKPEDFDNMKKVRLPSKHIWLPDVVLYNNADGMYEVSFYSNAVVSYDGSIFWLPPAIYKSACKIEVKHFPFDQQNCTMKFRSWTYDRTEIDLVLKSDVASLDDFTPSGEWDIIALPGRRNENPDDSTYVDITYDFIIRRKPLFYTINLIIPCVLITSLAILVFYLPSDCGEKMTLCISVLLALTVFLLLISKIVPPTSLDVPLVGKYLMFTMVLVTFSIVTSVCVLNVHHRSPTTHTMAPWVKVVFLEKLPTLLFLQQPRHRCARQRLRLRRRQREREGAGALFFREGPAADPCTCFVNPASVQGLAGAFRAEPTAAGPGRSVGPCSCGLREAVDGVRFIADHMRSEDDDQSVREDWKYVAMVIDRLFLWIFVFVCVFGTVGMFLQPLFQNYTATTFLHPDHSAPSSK

In the case of `Clc1ccc(C/N=C2\NCCCN2Cc2ccc(Cl)nc2)cn1` [Compound 3, 1-(6-chloro-3-pyridyl)methyl-[(6-chloro-3-pyridyl)methyl]imino-1,2,3,4,5,6-hexahydropyrimidine], the “control % of [3H]-α-Bgt binding at 100 μM of test compound” value (shortened to “control % … at 100 μM of test compound”) [1] is reported as 77%, the “control % of [3H]-α-Bgt binding at 1,000 μM of test compound” value (“control % … at 1,000 μM of test compound” for short) [1] is reported as 76% and the Ki [2] is reported as 739 nM.

For `N=C1N(Cc2ccc(Cl)nc2)CCCN1Cc1ccc(Cl)nc1` [Compound 4, 1,3-bis[(6-chloro-3-pyridyl)methyl]-2-imino-1,2,3,4,5,6-hexahydropyrimidine], the “control % … at 100 μM of test compound” value [1] was 49%, the “control % … at 1,000 μM of test compound” value [1] was 30% and the Ki [2] was 475 nM.

In the case of `Clc1ccc(C/N=c2\ncccn2Cc2ccc(Cl)nc2)cn1` [Compound 5, 1-(6-chloro-3-pyridyl)methyl-2-[(6-chloro-3-pyridyl)methyl]imino-1,2-dihydropyrimidine], the “control % of [3H]-cytisine binding at 1 μM of test compound” value (from here on “control % … at 1 μM of test compound”) [2] is reported as 92% and the “control % of [3H]-cytisine binding at 10 μM of test compound” value (shortened to “control % … at 10 μM of test compound”) [2] is reported as 23%.

In the case of `Clc1cc/c(=N\Cc2ccc(Cl)nc2)n(Cc2ccc(Cl)nc2)c1` [Compound 6, 5-chloro-1-(6-chloro-3-pyridyl)methyl-2-[(6-chloro-3-pyridyl)methyl]imino-1,2-dihydropyridine], the “control % … at 1 μM of test compound” value [2] is reported as 94% and the “control % … at 10 μM of test compound” value [2] is reported as 45%.

With `CC1CCC/C(=N\Cc2ccc(Cl)nc2)N1Cc1ccc(Cl)nc1` (stereo not shown) [Compound 7, 1-(6-chloro-3-pyridyl)methyl-2-[(6-chloro-3-pyridyl)methyl]imino-6-methylpiperidine] the “control % … at 100 μM of test compound” value [1] was 85%, the “control % … at 1,000 μM of test compound” value [1] was 52% and the “control % … at 1 μM of test compound” value [2] was 85%. For the same compound, the “control % … at 10 μM of test compound” value [2] was 75%.

In the case of `Cc1cs/c(=N\Cc2ccc(Cl)nc2)n1Cc1ccc(Cl)nc1` [Compound 9, 3-(6-Chloro-3-pyridyl)methyl-2-[(6-chloro-3-pyridyl)methyl]imino-4-methyl-2,3-dihydrothiazole], the “control % … at 100 μM of test compound” value [1] is reported as 78%, the “control % … at 1,000 μM of test compound” value [1] is reported as 40% and the Ki [2] is reported as 110 nM.

With `N=c1n(Cc2ccc(Cl)nc2)ccn1Cc1ccc(Cl)nc1` [Compound 10, 1,3-bis[(6-chloro-3-pyridyl)methyl]-2-imino-2,3-dihydroimidazole] the “control % … at 1 μM of test compound” value [2] was 89% and the “control % … at 10 μM of test compound” value [2] was 46%.

`C/N=C1\SCCN1Cc1ccc(Cl)nc1` [Compound 11, 3-(6-chloro-3-pyridyl)methyl-2-methylimino-thiazolidine] was tested, and the “control % … at 1 μM of test compound” value [2] was 93% and the “control % … at 10 μM of test compound” value [2] was 18%.

For `Clc1ccc(Cn2ccs/c2=N\c2ccccc2)cn1` [Compound 12, 3-(6-Chloro-3-pyridyl)methyl-2-phenylimino-2,3-dihydrothiazole], the “control % … at 100 μM of test compound” value [1] was 86%, the “control % … at 1,000 μM of test compound” value [1] was 48% and the “control % … at 1 μM of test compound” value [2] was 109%. For the same compound, the “control % … at 10 μM of test compound” value [2] was 84%.

In the case of `Clc1ccc(CN2CCS/C2=N\Cc2ccccc2)cn1` [Compound 14, 2-Benzylimino-3-(6-chloro-3-pyridyl)methylthiazolidine], the “control % … at 100 μM of test compound” value [1] is reported as 64%, the “control % … at 1,000 μM of test compound” value [1] is reported as 20% and the Ki [2] is reported as 123 nM.
